From patent publication EP4635513A1, “NEAR-INFRARED PHOTOSENSITIZER THAT CAN BE ACTIVATED IN SLIGHTLY ACIDIC TUMOR ENVIRONMENT AND PREPARATION METHOD THEREFOR AND USE THEREOF” (Shenzhen University, priority 2024, dated 2025) come the findings set out here.

A value given as a limit tells only on which side of the number the result lay.

Series [1] can be described thus: pH-response fluorescence spectra. It counts as physicochemical. The note with it: pH dependence; for fluorescence emission intensity in the near-infrared region: excitation 760 nm (LET-H, LET-I), 660 nm (LET-Hcy-N); for fluorescence intensity in the visible light region: excitation 420 nm, PBS buffer with 1% DMSO. The procedure:
The photosensitizers prepared in the Embodiments 1-8 were individually dissolved in dimethyl sulfoxide to prepare 10 mM photosensitizer stock solution, which were stored at 4 °C for subsequent use. All experiments were conducted in PBS buffer (1 ×) containing 1% DMSO. 2 µL of the photosensitizer stock solution was added to 2 mL of PBS buffer solutions at different pH values. Absorption spectra and fluorescence spectra of each photosensitizer under various pH conditions were recorded using ultraviolet-visible spectrophotometry and fluorescence spectrophotometry.

Series [2] can be described thus: Singlet oxygen detection by ESR/EPR spectroscopy with TEMP as trapping agent. Conditions: near-infrared irradiation. Format: physicochemical. The procedure: Singlet oxygen generation and characterization were further analyzed by electron spin resonance (ESR) spectroscopy. Using photosensitizers LET-H' and LET-I' as examples, 2,2,6,6-tetramethyl-4-piperidone hydrochloride (TEMP) was employed as the singlet oxygen trapping agent. Two groups of photosensitizer stock solutions were prepared and diluted with TEMP added, one group remained untreated, while another was irradiated with the near-infrared laser, and a blank control group was also prepared for comparison.

Series [3] in a line: Singlet oxygen generation assay with DPBF as trapping agent. The note with it: 808 nm laser irradiation, 0.2 W cm^-2; DMSO. It counts as physicochemical. The procedure: The photosensitizers LET-R (R = H, Cl, Br, I) prepared in the Embodiments 1-4 were assessed. 1,3-Diphenylisobenzofuran (DPBF) was selected as a singlet oxygen trapping agent to determine a singlet oxygen generation capability of each photosensitizer molecule.
A 1 mM DPBF stock solution was first prepared for use. An appropriate volume of freshly prepared DPBF solution was then added to DMSO to adjust the absorbance at 415 nm to approximately 1.0, followed by addition of photosensitizer solution at appropriate concentration. The ultraviolet-visible absorption spectra were measured after different irradiation times with a near-infrared laser. The singlet oxygen generation capability of each photosensitizer was evaluated by monitoring the absorbance changes of DPBF at 415 nm.

The nature of series [4]: Singlet oxygen quantum yield with ICG as reference standard. Format: physicochemical. The note with it: DPBF in dichloromethane, near-infrared laser. The procedure: Using indocyanine green (ICG) as a reference standard, the singlet oxygen quantum yields of photosensitizers LET-R (R = H, Cl, Br, I) were determined. At first, an appropriate volume of freshly prepared DPBF solution was added to dichloromethane to adjust the absorbance at 415 nm to approximately 1.0, followed by addition of test solution (photosensitizer or ICG) at optimized concentration. Samples were then irradiated with a near-infrared laser, and time-dependent ultraviolet-visible spectral changes were recorded. The singlet oxygen quantum yield was calculated using Formula (1): ΦΔ = […] [formula]
ΦΔ represents the singlet oxygen quantum yield of test molecules, and ΦICG represents the singlet oxygen quantum yield of ICG. "ps" represents the photosensitizer under investigation, while k represents a slope of DPBF absorbance decay at 415 nm over time. And correction factor F is calculated using Formula (2): […] [formula]
In Formula (2), OD represents the absorbance of solutions at a laser wavelength.

Series [5] has as its system murine mammary carcinoma cells (4T1 cell line). The series can be described thus: Photodynamic efficacy at cellular level, cell viability assay. Format: cell-based. Conditions: Mus musculus, light or radiation study, 4T1 cells, 6 hours incubation, 808 nm (0.2 W/cm^2) laser, 20 minutes irradiation. The procedure:
The photodynamic therapeutic efficacy was evaluated using standardized […] assay protocols to assess the effects of photosensitizer molecules on viability of murine mammary carcinoma cells (4T1 cell line).
Cell culture was performed using Dulbecco's Modified Eagle Medium (DMEM) high glucose supplemented with 10% fetal bovine serum (FBS) and 1% antibiotic-antimycotic solution (penicillin-streptomycin mixture), and maintained in a humidified incubator at 37 °C with 5% CO2. Experimental procedures were initiated when cell density reached 80% confluency. Using photosensitizers LET-H and LET-I as examples, 4T1 cells were seeded in 96-well plates (100 µL, 5×10^3 cells/well) and cultured for 24 hours, then original medium was discarded and replaced with medium containing photosensitizer molecules at a concentration of 20 µM. After 6 hours of incubation, the medium in each well was replaced with fresh medium, and irradiated with an 808 nm (0.2 W/cm^2) laser for different times (0, 5, 10 and 20 min), and placed back in cell culture incubator for continued incubation. After irradiation, the plates were returned to the incubator for continued culture. After 12 hours of incubation, 10 µL of CCK-8 solution was added to each well, and the plates were incubated for one additional hour. Absorbance was subsequently measured at 450 nm using a microplate reader.

Usually viability stands for a per cent measure of how many cells are alive, often set against a control. Higher therefore signals better survival.

As to `CCN(CC)c1ccc2c(c1)OC1=C(C=CC34OCCCN3c3ccccc3C4(C)C)CCCC1=C2` (stereo not shown) [LET-Hcy-N], the “fluorescence emission intensity in the near-infrared region” value (“fluorescence emission intensity” for short) in series [1] is “enhanced fluorescence emission intensity at higher pH values”.
`CC1(C)C(=CC=C2CCCC(C=CC34OCCCN3c3ccc(I)cc3C4(C)C)=C2Cl)N(CCCO)c2ccc(I)cc21` (stereo not shown) [LET-I]: the “EPR spectrum, singlet oxygen production” value in series [2] is “three isointense paramagnetic resonance peaks (1:1:1)”. Further, in series [1], the “fluorescence intensity in the visible light region” value was “decreased with increasing pH” and the “fluorescence emission intensity” value is “enhanced fluorescence emission intensity at higher pH values”. For the same compound, the “singlet oxygen generation capability (DPBF degradation, absorbance at 415 nm)” value in series [3] is recorded as “superior singlet oxygen generation efficiency”. Moreover, the “singlet oxygen quantum yield” value in series [4] is “superior singlet oxygen generation capability”. In addition, the viability at 20 µM in series [5] is less than 30%.
As to `CC1(C)C(=CC=C2CCCC(C=CC34OCCCN3c3ccccc3C4(C)C)=C2Cl)N(CCCO)c2ccccc21` (stereo not shown) [LET-H], the “EPR spectrum, singlet oxygen production” value in series [2] is reported as “three isointense paramagnetic resonance peaks (1:1:1)”. Moreover, in series [1], the “fluorescence intensity in the visible light region” value was “decreased with increasing pH” and the “fluorescence emission intensity” value was “enhanced fluorescence emission intensity at higher pH values”.
